{"source": "patent US20230330060A1", "about": "“COMPOUNDS FOR TREATMENT OF HEART FAILURE” (Sulfateq B.V., priority 2020, published 2023)", "key": {"H9C2 cardiomyocytes [1]": {"system": "H9C2 cardiomyocytes", "assay": "Quantification of phenylephrine-induced EGFP synthesis as surrogate for cell size (hypertrophy)", "format": "cell-based, rat", "details": "for SUL EGFP Inhibition (%): 30 μM SUL compound, calculated as 100%-Emax; for Expression of EGFP induced by phenylephrine (FIG. 3): preincubation with 30 μM compound", "method": "(§1) Rat H9C2 cardiomyoblasts (ATCC CRL-1446) were maintained in DMEM medium containing 10% fetal bovine serum and 1% Penicillin-Streptomycin solution (Sigma-Aldrich) and passaged when the cultures reach a confluency of 70%. Prior to experiments, H9C2 myoblasts were differentiated to cardiomyocytes by serum reduction (to 1%) and stimulation with 20 nM retinoic acid for 5 days. Differentiated H9C2 cardiomyocytes were seeded at 0.6·10^5 cells/cm^2 for all experiments.\nH9C2 cardiomyocytes (0.6·10^5 cells/cm2) were infected with CMV-copGPF (MOI 10) in culture medium without serum for 24 h. H9C2 cardiomyocytes were pre-incubated with 30 μM SUL compounds under standard culture conditions for 30 min and then stimulated with phenylephrine (dose range 2·10^−5 to 1·10^−11 M) for an additional period of 24 h. Thereafter H9C2 cardiomyocytes were lysed in 100 μl soft lysis buffer (25 mM Tris, 2 mM Dithiothreitol, 2 mM EDTA, 1% Triton X-100, pH 7.4). per well and fluorescence intensity of the obtained supernatant was recorded in a CLARIOStar Plus plate reader (BMG Labtech) equipped with a FITC filter set (excitation 488 nm with 10 nm bandwidth; emission 515 with a 20 nm bandwidth).\nAll experiments were performed in triplicate per condition and averaged. Data obtained from two individual experiments were used for evaluation in GraphPad Prism 8.0 (GraphPad Software Inc, Ca). Average H9C2 cardiomyocyte cell size was associated to average EGFP levels using linear regression. Phenylephrine-induced EGFP synthesis was normalized, using baseline levels as 0% and maximum EGFP recordings as 100%. All datasets were normalized to vehicle controls. 4 parameter non-linear regression was used to determine the efficacy of potency of phenylephrine to induce GFP synthesis. The efficacy of SUL compounds to inhibit phenylephrine-induced EGFP synthesis was calculated as 100%-Emax, wherein Emax is the maximal effect evoked by phenylephrine."}, "H9C2 cardiomyocytes [2]": {"system": "H9C2 cardiomyocytes", "assay": "Protein synthesis by H9C2 cardiomyocytes after phenylephrine", "format": "cell-based", "details": "Rattus norvegicus, FIG. 2D, read-out: EC50 for increase of protein synthesis"}, "H9C2 cardiomyocytes [3]": {"system": "H9C2 cardiomyocytes", "assay": "Determination of cell size (cell surface area) after phenylephrine", "format": "cell-based, rat", "details": "24 h", "method": "as §1\nH9C2 cardiomyocytes were serum starved for 24 h and thereafter exposed to different concentrations of phenylephrine (dose range 2·10^−5 to 1·10^−11 M) for an additional 24 h. Cells were washed in ice-cold PBS and fixed by 2% paraformaldehyde in PBS at room temperature for 10 min. Fixed cells were incubated with 5 μM Rhodamine-conjugated Phalloidin (ThermoFisher Scientific) and washed extensively with PBS. Fluorescent pictures were taken randomly with an Zeiss AxioObserver Z1 microscope and cell size was analyzed with CellProfiler software [McQuin, 2018]."}}}
{"smiles": "C[C@H]1CCC/C=C/[C@@H]2C[C@H](O)C[C@H]2[C@H](O)/C=C/C(=O)O1", "note": "[Brefeldin A, reference compound]", "values": [{"measurement": "Phenylephrine-induced increase in EGFP fluorescence (FIG. 2F)", "setting": "H9C2 cardiomyocytes [1]; addition of protein synthesis inhibitor", "value": "inhibits the phenylephrine-induced increase in EGFP fluorescence"}]}
{"smiles": "CNC[C@H](O)c1cccc(O)c1", "note": "[Phenylephrine]", "values": [{"measurement": "EC50", "setting": "H9C2 cardiomyocytes [1]; Rattus norvegicus, H9C2 cardiomyocytes transformed with CMV-EGFP lentiviral particles, FIG. 2B, read-out: EC50 for increase of EGFP fluorescence", "value": 5.2, "unit": "nM"}, {"measurement": "EC50", "setting": "H9C2 cardiomyocytes [2]", "value": 0.55, "unit": "nM"}, {"measurement": "H9C2 cardiomyocyte cell surface area", "setting": "H9C2 cardiomyocytes [3]; 2·10^−5 M phenylephrine, vehicle-treated control 791±263 μm^2", "value": "3278±296", "unit": "μm^2"}, {"measurement": "EC50", "setting": "H9C2 cardiomyocytes [3]; Rattus norvegicus, H9c2, phenylephrine 1·10^−11 to 2·10^−5 M, FIG. 2A, read-out: EC50 for increase of H9C2 cardiomyocyte cell surface area", "value": 0.74, "unit": "nM"}]}
{"smiles": "Cc1c(C)c2c(c(C)c1O)CCC(C)(C(=O)O)O2", "note": "(stereo not shown) [SUL-11, 6-hydroxy-2,5,7,8-tetramethylchroman-2-carboxylic acid (Trolox), reference compound]", "values": [{"measurement": "SUL EGFP Inhibition (%)", "setting": "H9C2 cardiomyocytes [1]", "value": 54.05, "unit": "%"}, {"measurement": "Expression of EGFP induced by phenylephrine (FIG. 3)", "setting": "H9C2 cardiomyocytes [1]", "value": "reduced the expression of EGFP"}]}
{"smiles": "Cc1c(C)c2c(c(C)c1O)CC[C@@](C)(C(=O)N[C@@H]1CCCNC1)O2", "note": "[SUL-13, (S)-6-hydroxy-2,5,7,8-tetramethyl-N-((R)-piperidin-3-yl)chromane-2-carboxamide]", "values": [{"measurement": "SUL EGFP Inhibition (%)", "setting": "H9C2 cardiomyocytes [1]", "value": 68.85, "unit": "%"}, {"measurement": "Expression of EGFP induced by phenylephrine (FIG. 3)", "setting": "H9C2 cardiomyocytes [1]", "value": "reduced the expression of EGFP"}]}
{"smiles": "COC(=O)CNC(=O)C1(C)CCc2c(C)c(O)c(C)c(C)c2O1", "note": "(stereo not shown) [SUL-99, methyl [(6-hydroxy-2,5,7,8-tetramethyl-3,4-dihydro-2H-1-benzopyran-2-carbonyl)amino]acetate, reference compound]", "values": [{"measurement": "SUL EGFP Inhibition (%)", "setting": "H9C2 cardiomyocytes [1]", "value": 55.11, "unit": "%"}, {"measurement": "Expression of EGFP induced by phenylephrine (FIG. 3)", "setting": "H9C2 cardiomyocytes [1]", "value": "reduced the expression of EGFP"}]}
{"smiles": "Cc1c(C)c2c(c(C)c1O)CC[C@@](C)(C(=O)N1CCN(CCO)CC1)O2", "note": "[SUL-138, (S)-(6-hydroxy-2,5,7,8-tetramethylchroman-2-yl)(4-(2-hydroxyethyl)piperazin-1-yl)methanone]", "values": [{"measurement": "SUL EGFP Inhibition (%)", "setting": "H9C2 cardiomyocytes [1]", "value": 63.18, "unit": "%"}, {"measurement": "Expression of EGFP induced by phenylephrine (FIG. 3)", "setting": "H9C2 cardiomyocytes [1]", "value": "reduced the expression of EGFP"}]}
{"smiles": "Cc1c(C)c(O)c(CC[C@@](C)(O)C(=O)N2CCN(CCO)CC2)c(C)c1O", "note": "[SUL-138M2, 4-(2,5-dihydroxy-3,4,6-trimethylphenyl)-2-hydroxy-1-(4-(2-hydroxyethyl)piperazin-1-yl)-2-methylbutan-1-one]", "values": [{"measurement": "SUL EGFP Inhibition (%)", "setting": "H9C2 cardiomyocytes [1]", "value": 43.92, "unit": "%"}]}
{"smiles": "Cc1c(C)c2c(c(C)c1O)CC[C@@](C)(C(=O)N1CCNCC1)O2", "note": "[SUL-151, (S)-(6-hydroxy-2,5,7,8-tetramethylchroman-2-yl)(piperazin-1-yl)methanone]", "values": [{"measurement": "SUL EGFP Inhibition (%)", "setting": "H9C2 cardiomyocytes [1]", "value": 56.8, "unit": "%"}, {"measurement": "Expression of EGFP induced by phenylephrine (FIG. 3)", "setting": "H9C2 cardiomyocytes [1]", "value": "reduced the expression of EGFP"}]}
